“And” between values parts separate entries of the source, which are not always exact repeats. Identical values can stand only once. Like-named read-outs stand apart in the source and are kept apart here.
Legend:
HAPT = settings: cited from earlier work
3×HA tagged TbAQP2 = molecular target: T1, 3×HA tagged TbAQP2 (Trypanosoma brucei brucei, UniProt Q6ZXT3); format: cell-based
T1 construct: expressed in transfected cells; host or cells: T. brucei 2T1 bloodstream forms, tetracycline-induced

CRK12 RNAi cells = experiment: [3H]-pentamidine transport after CRK12 RNAi induction (endocytosis defect); format: cell-based, Trypanosoma brucei
TbAQP2WT [1] = experiment: cell-based; design: species or system Trypanosoma brucei brucei
TbAQP2WT [2] = molecular target: TbAQP2WT (Trypanosoma brucei brucei, UniProt Q6ZXT3); experiment: cell-based
[3] = system: tbaqp2/tbaqp3 null cells expressing TbAQP2^L84W/L118W; experiment: Drug sensitivity assay (resazurin); format: cell-based, Trypanosoma brucei brucei; settings: Fig. 4A, L84W/L118W in aqp2/aqp3 null, read-out: Alamar blue EC50, single repeats
TbAQP3 = TbAQP3 (Trypanosoma brucei brucei, UniProt Q6ZXT2); format: cell-based
tbaqp1-2-3 null cells = experiment: Drug sensitivity assay (resazurin), pentamidine and SHAM; format: cell-based, Trypanosoma brucei brucei; settings: KO AQP1-3
[4] = system: tbaqp2/tbaqp3 null cells expressing TbAQP2WT; experiment: microbe, parasite or virus in culture; format: cell-based, Trypanosoma brucei brucei
TbAQP2^I190T [5] = experiment: cell-based; design: species or system Trypanosoma brucei brucei; settings: TbAQP2^I190T cells; read-out: Km of lower affinity segment (LAPT1)
TbAQP2^I190T [6] = molecular target: T2, TbAQP2^I190T (Trypanosoma brucei brucei, UniProt Q6ZXT3, I190T); experiment: cell-based
T2 sequence (Q6ZXT3 1-312 I190T): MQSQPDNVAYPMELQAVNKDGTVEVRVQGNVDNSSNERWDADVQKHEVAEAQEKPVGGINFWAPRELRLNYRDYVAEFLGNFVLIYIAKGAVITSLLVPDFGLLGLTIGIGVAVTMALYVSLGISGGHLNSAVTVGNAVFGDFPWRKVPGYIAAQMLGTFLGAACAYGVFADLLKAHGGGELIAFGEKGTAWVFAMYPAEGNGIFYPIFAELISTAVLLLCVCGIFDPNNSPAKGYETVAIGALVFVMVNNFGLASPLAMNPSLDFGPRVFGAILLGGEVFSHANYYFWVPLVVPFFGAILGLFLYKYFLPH

[7] = system: tbaqp2/tbaqp3 null cells expressing TbAQP3; format: cell-based, Trypanosoma brucei brucei
[8] = read-out: Alamar blue EC50, single repeats
[9] = Fig. 3A, exp AQP038-AQP041, AQP2 mutant I190T

Sequence of TbAQP2WT (Trypanosoma brucei brucei, UniProt Q6ZXT3) (Q6ZXT3 whole entry): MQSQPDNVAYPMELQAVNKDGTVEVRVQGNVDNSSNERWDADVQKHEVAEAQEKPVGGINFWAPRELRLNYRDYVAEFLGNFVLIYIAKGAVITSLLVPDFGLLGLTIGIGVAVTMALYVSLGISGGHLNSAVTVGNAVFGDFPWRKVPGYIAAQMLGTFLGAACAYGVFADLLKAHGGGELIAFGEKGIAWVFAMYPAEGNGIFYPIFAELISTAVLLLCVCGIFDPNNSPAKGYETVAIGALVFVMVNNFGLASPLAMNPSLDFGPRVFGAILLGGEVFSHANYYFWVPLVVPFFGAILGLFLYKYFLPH
Sequence of TbAQP3 (Q6ZXT2 whole entry): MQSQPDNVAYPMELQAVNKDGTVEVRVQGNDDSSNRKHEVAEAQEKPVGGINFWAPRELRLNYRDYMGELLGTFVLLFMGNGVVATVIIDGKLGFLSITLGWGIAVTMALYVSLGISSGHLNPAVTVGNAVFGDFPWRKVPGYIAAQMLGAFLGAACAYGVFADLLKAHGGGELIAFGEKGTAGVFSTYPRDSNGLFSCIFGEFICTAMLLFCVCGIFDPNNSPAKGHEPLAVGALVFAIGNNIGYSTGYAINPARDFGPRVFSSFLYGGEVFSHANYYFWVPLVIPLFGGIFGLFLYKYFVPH
T1 sequence (Q6ZXT3 whole entry): as the sequence (Q6ZXT3 whole entry) above

SMILES: N=C(N)c1ccc(OCCCCCOc2ccc(C(=N)N)cc2)cc1 [Pentamidine]
- Vmax (HAPT): 0.0044 ± 0.0004 pmol(10^7 cells)^−1 s^−1
- Vmax for HAPT-mediated pentamidine uptake (HAPT): 9.5 × 10^5 molecules/cell/h and 8.5 × 10^6 molecules/cell/h
- Effect on TbAQP2 turnover rate (3×HA tagged TbAQP2): identical turnover rates
- pentamidine uptake rate, CRK+tet, AVERAGE (CRK12 RNAi cells; CRK12 RNAi induced (+tet), 4 experiments): 0.00587 pmol/1E7 cells/s-1
- pentamidine uptake rate, CRK+tet (CRK12 RNAi cells; CRK12 RNAi induced (+tet), single experiments): 0.00804 pmol/1E7 cells/s-1 and 0.004193 pmol/1E7 cells/s-1 and 0.006636 pmol/1E7 cells/s-1 and 0.004619 pmol/1E7 cells/s-1
- pentamidine uptake rate, CRK-tet, AVERAGE (CRK12 RNAi cells; CRK12 RNAi not induced (-tet), 4 experiments): 0.00656 pmol/1E7 cells/s-1
- Km (TbAQP2WT [1]; TbAQP2-WT cells, read-out: Km of low affinity component (LAPT1)): 82.7 ± 17.5 µM
- [3H]-pentamidine taken up by the low affinity component (TbAQP2WT [1]; highly similar for TbAQP2^I190T and TbAQP2WT cell lines): approximately 0.0005 pmol(10^7 cells)^−1 s^−1
- EC50 (TbAQP2WT [2]): 41 ± 17 nM
- Pentamidine transport rate AVG (TbAQP2WT [2]): 0.02122 pmol/10E7 cells/s
- Pentamidine transport rate as percent of +AQP2-WT, AVG (TbAQP2WT [2]): 100.0%
- Pentamidine transport rate as percent of +AQP2-WT, single experiments (TbAQP2WT [2]): 100.0%
- Pentamidine transport rate, AVG (TbAQP2WT [2]): 0.02122 pmol/10E7 cells/s and 0.03781 pmol/10E7 cells/s
- Pentamidine transport rate, percent of +AQP2-WT, AVG (TbAQP2WT [2]): 100.00% of +AQP2-WT
- Transport rate AVG (TbAQP2WT [2]): 100
- activity at 0.03 µM (TbAQP2WT [2]; read-out: Pentamidine transport rate, percent of +AQP2-WT): 100%
- EC50 [3]: 65.7 nM
- EC50 ([3]; Trypanosoma brucei): 53.4 nM
- Pentamidine transport rate (TbAQP3): 1.04E-04 pmol/10E7 cells/s
- Pentamidine transport rate, percent of TbAQP2WT control (TbAQP3): 0.49%
- Transport rate AVG (TbAQP3): 0.48
- EC50 (tbaqp1-2-3 null cells; [8]): 75.4 nM and 63.9 nM
- EC50 (tbaqp1-2-3 null cells; Trypanosoma brucei, 3 repeats, read-out: Alamar blue EC50, MEAN): 69.3 nM
- EC50 (tbaqp1-2-3 null cells; Trypanosoma brucei, read-out: Alamar blue EC50, single repeats): 68.7 nM
- EC50, percent of AQP2/3 null EC50 [4]: 0.08% and 0.0842% and 1.40% and 0.16%
- EC50 ([4]; Trypanosoma brucei, read-out: Alamar blue EC50, MEAN): 0.84 nM
- EC50 ([4]; read-out: Alamar blue EC50, MEAN): 1.61 nM
- EC50 [4, 8]: 1.5 nM
- Km (TbAQP2^I190T [5]): 59.9 ± 9.1 µM
- IC50 (TbAQP2^I190T [6]): 30.9 ± 12.2 nM
- Pentamidine transport rate as percent of +AQP2-WT, AVG (TbAQP2^I190T [6]; [9]): 2.728%
- Pentamidine transport rate, AVG (TbAQP2^I190T [6]; [9]): 0.0008657 pmol/10E7 cells/s
- Pentamidine transport rate, single experiments (TbAQP2^I190T [6]; [9]): 0.0007167 pmol/10E7 cells/s and 0.001156 pmol/10E7 cells/s and 0.0009528 pmol/10E7 cells/s and 0.0006372 pmol/10E7 cells/s
- EC50 as percent of AQP2/3 null EC50, MEAN [7]: 105.70%

— publication PMC7473772 (eLife, 2020)
